{
  "source": "patent US20100261753A1",
  "about": "“METHODS FOR PREVENTING AND/OR TREATING DEGENERATIVE DISORDERS OF THE CENTRAL NERVOUS SYSTEM” (AMICUS THERAPEUTICS, INC., priority 2009, published 2010)",
  "key": {"[1]": {"assay": "Compound concentration in brain, spleen and plasma samples of the GCase enhancement study", "type": "in vivo, mice (C57BL/6)", "conditions": "male, C57BL/6, mouse, po, nine doses, 24-hour washout", "experimental": "The ability of orally administered test compounds (the hydrochloride salt form of Compound A and Compound B) to elevate GCase levels as compared to reference compound, IFG-tartrate, was assessed in mice. […] Seven animals were used per dose. The dosing solutions were prepared in water. Compounds were administered over 2 weeks as follows: week 1, Mon-Fri (On), Sat-Sun (Off); week 2, Mon-Thu (On); necropsy on Friday. Thus, a total of 9 doses (dosing solutions prepared fresh every day) were given to each mouse, with a 24-hour washout between the last dose and necropsy.\nPlasma was collected by spinning blood at 2700 g for 10 minutes at 4° C. Liver, spleen, lung, and brain tissues were removed, washed in cold PBS, blotted dry, flash frozen on dry ice, and stored at −80° C. until analysis. GCase levels were measured by homogenizing approximately 50 mg tissue in 500 μl McIlvane (MI) buffer (100 mM sodium citrate, 200 mM sodium phosphate dibasic, 0.25% sodium taurocholate, and 0.1% Triton X-100, pH 5.2) at pH 5.2 for 3-5 seconds on ice with a micro homogenizer. Homogenates were then incubated at room temperature without and with 2.5 mM conduritol-B-epoxide (CBE) for 30 min. Finally, 3.7 mM 4-methylumbeliferryl-β-glucoside (4-MUG) substrate was added and incubated at 37° C. for 60 min. Reactions were stopped by addition of 0.4 M glycine, pH 10.6. Fluorescence was measured on a plate reader for 1 sec/well using 355 nm excitation and 460 nm emission. Total protein was determined in lysates using the MicroBCA kit according to the manufacturer's instructions. A 4-methylumbelliferone (4-MU) standard curve ranging from 1.0 nM to 50 μM was run in parallel for conversion of raw fluorescence data to absolute GCase activity (in the presence and absence of CBE) and expressed as nanomoles of 4-MU released per milligram of protein per hour (nmol/mg protein/hr). GCase levels and protein levels were calculated using Microsoft Excel (Redmond, Wash.) and GraphPad Prism version 4.02."}, "GCase": {"biological_target": "T1, GCase (Homo sapiens, UniProt P04062)", "T1 sequence (P04062 40-536)": "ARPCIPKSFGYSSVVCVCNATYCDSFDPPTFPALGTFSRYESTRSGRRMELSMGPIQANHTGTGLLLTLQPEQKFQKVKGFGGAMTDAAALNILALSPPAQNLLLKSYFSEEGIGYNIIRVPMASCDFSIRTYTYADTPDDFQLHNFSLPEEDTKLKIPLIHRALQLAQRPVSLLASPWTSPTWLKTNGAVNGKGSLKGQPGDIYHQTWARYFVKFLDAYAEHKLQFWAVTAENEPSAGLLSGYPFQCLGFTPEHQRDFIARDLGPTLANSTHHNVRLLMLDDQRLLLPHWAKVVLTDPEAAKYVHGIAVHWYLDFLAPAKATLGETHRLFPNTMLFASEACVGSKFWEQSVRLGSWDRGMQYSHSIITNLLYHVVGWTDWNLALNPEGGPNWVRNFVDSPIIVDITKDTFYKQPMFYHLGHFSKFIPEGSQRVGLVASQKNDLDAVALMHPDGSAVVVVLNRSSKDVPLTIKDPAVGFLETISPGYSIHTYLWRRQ", "assay": "GCase activity enhancement (EC50, Emax; Table 2B)", "type": "cell-based"}},
  "note": "Structures can show the parent of a compound that is named as a salt.",
  "data": [
    {"molecule": "OC[C@H]1CNC[C@@H](O)[C@@H]1O", "note": "[IFG, (3R,4R,5R)-5-(hydroxymethyl)-3,4-piperidinediol, reference compound]", "values": [
      {"measurement": "concentration at 24 h", "setting": "[1]; brain, 10 mg/kg, 10 mg/kg p.o., Table 4A", "value": "49 ± 2.4", "unit": "nM"},
      {"measurement": "concentration at 24 h", "setting": "[1]; brain, 100 mg/kg, 100 mg/kg p.o., Table 3A", "value": "182 ± 13", "unit": "nM"},
      {"measurement": "concentration at 24 h", "setting": "[1]; brain, 100 mg/kg, 100 mg/kg p.o., Table 4A", "value": "287 ± 74", "unit": "nM"},
      {"measurement": "concentration at 24 h", "setting": "[1]; plasma, 10 mg/kg, 10 mg/kg p.o., Table 4C", "value": "67 ± 10", "unit": "nM"},
      {"measurement": "concentration at 24 h", "setting": "[1]; plasma, 100 mg/kg, 100 mg/kg p.o., Table 3C", "value": "330 ± 36", "unit": "nM"},
      {"measurement": "concentration at 24 h", "setting": "[1]; plasma, 100 mg/kg, 100 mg/kg p.o., Table 4C", "value": "852 ± 134", "unit": "nM"},
      {"measurement": "concentration at 24 h", "setting": "[1]; spleen, 10 mg/kg, 10 mg/kg p.o., Table 4B", "value": "150 ± 12", "unit": "nM"},
      {"measurement": "concentration at 24 h", "setting": "[1]; spleen, 100 mg/kg, 100 mg/kg p.o., Table 3B", "value": "711 ± 100", "unit": "nM"},
      {"measurement": "concentration at 24 h", "setting": "[1]; spleen, 100 mg/kg, 100 mg/kg p.o., Table 4B", "value": "1140 ± 220", "unit": "nM"}
    ]},
    {"molecule": "Cl.O[C@@H]1[C@@H](CF)CNC[C@H]1O", "note": "[Compound A-HCl, (3R,4R,5R)-5-(fluoromethyl)piperidine-3,4-diol hydrochloride]", "values": [
      {"measurement": "melting point", "value": "200 to 202", "unit": "°C"}
    ]},
    {"molecule": "OC[C@H]1CNC[C@@H](O)[C@@H]1O", "note": "[IFG-Tartrate, Isofagomine tartrate, reference compound]", "values": [
      {"measurement": "Emax", "setting": "GCase", "value": "93.6 ± 2.5", "unit": "%"}
    ]}
  ]
}
